This passage reports IC50 results from patent US9714236B2, “Compounds and methods for inhibiting JAK” (AstraZeneca AB, priority 2015, dated 2017).

Some results are limits rather than exact numbers.

What all share (format): biochemical
For experiment [1], the target named is recombinant JAK3 (amino acids 781-1124) (Homo sapiens (Human), UniProt P52333). The experiment in a line: Enzyme inhibition studies, JAK3 (peptide phosphorylation, Caliper LC3000). To be noted: ATP concentration of the tabulated values not stated (assayed at ATP Km 3 μM and at 5 mM). As to the method:
(§1) Enzyme inhibition studies were performed using recombinant JAK1 (amino acids 866-1154, Life Technologies, #PV4774, Carlsbad, Calif.), JAK2 (amino acids 831-1132), or JAK3 (amino acids 781-1124) under buffer conditions of 50 mM HEPES pH 7.3, 1 mM DTT, 0.01% Tween® 20, 50 μg/mL BSA, and 10 mM MgCl2. JAK enzyme was expressed as an N-terminal GST fusion in insect cells and purified by glutathione-affinity and size-exclusion chromatographies. […] Phosphorylated and unphosphorylated peptides were separated and quantified by a Caliper LC3000 system (Caliper Life Sciences, MA) for calculating percent inhibition.

In experiment [2] the target is recombinant JAK1 (amino acids 866-1154) (Homo sapiens (Human), UniProt P23458). The experiment is described as follows: Enzyme inhibition studies, JAK1 (peptide phosphorylation, Caliper LC3000). Conditions: ATP concentration not given (assayed at ATP Km 55 μM and at 5 mM). As to the method:
as §1

Experiment [3] has as its target recombinant JAK2 (amino acids 831-1132) (Homo sapiens (Human), UniProt O60674). The experiment in a line: Enzyme inhibition studies, JAK2 (peptide phosphorylation, Caliper LC3000). Conditions: ATP concentration of the tabulated values not stated (assayed at ATP Km 15 μM and at 5 mM). On the procedure:
as §1

recombinant JAK3 (amino acids 781-1124), sequence (P52333 781-1124): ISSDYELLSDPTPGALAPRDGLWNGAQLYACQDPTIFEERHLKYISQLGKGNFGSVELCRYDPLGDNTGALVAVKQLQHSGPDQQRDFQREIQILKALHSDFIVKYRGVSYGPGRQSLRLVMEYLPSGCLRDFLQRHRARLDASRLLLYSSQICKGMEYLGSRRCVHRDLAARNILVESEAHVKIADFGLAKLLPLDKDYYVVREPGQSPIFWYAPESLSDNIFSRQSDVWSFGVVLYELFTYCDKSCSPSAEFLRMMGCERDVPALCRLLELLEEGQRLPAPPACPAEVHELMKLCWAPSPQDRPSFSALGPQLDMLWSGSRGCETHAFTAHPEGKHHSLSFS
recombinant JAK2 (amino acids 831-1132), sequence (O60674 831-1132): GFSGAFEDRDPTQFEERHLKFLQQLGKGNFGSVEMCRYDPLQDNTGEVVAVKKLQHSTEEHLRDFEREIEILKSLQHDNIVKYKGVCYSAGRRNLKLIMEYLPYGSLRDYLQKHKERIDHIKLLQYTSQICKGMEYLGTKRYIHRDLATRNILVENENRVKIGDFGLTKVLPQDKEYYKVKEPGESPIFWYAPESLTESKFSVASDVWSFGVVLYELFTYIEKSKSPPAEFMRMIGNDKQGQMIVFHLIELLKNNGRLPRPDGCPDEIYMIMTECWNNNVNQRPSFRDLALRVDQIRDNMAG
recombinant JAK1 (amino acids 866-1154), sequence (P23458 866-1154): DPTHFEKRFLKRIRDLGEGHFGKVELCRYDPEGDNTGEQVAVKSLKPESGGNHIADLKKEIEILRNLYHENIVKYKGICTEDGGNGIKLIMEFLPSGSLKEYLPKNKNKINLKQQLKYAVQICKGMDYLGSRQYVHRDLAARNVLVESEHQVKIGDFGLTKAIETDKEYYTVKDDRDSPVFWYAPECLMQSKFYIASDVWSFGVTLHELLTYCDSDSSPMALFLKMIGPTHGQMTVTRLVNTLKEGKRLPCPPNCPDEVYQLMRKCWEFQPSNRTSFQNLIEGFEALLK

On to `CCOc1nn(C)cc1Nc1ncc(F)c(-c2c[nH]c3c(NC(=O)[C@H](C)N4CCN(C)[C@@H](C)C4)cccc23)n1` [Example 11b, (2S)-2-[(3S)-3,4-dimethylpiperazin-1-yl]-N-(3-{2-[(3-ethoxy-1-methyl-1H-pyrazol-4-yl)amino]-5-fluoropyrimidin-4-yl}-1H-indol-7-yl)propanamide], for which the IC50 in experiment [1] is greater than 30 µM; in experiment [2], 1.85 µM; in experiment [3], greater than 30 µM.
As to `CCOc1nn(C)cc1Nc1ncc(F)c(-c2c[nH]c3c(NC(=O)[C@@H](C)N4CCN(C)[C@H](C)C4)cccc23)n1` [Example 13, (2R)-2-[(3R)-3,4-dimethylpiperazin-1-yl]-N-(3-{2-[(3-ethoxy-1-methyl-1H-pyrazol-4-yl)amino]-5-fluoropyrimidin-4-yl}-1H-indol-7-yl)propanamide], the 50% inhibitory concentration (IC50) in experiment [1] is greater than 30 µM; in experiment [2], 0.166 µM; in experiment [3], greater than 30 µM.
Consider `COc1nn(C)cc1Nc1ncc(C)c(-c2c[nH]c3c(NC(=O)[C@@H](C)N4CCN(C)[C@@H](C)C4)cccc23)n1` [Example 14, (2R)-2-[(3S)-3,4-dimethylpiperazin-1-yl]-N-(3-{2-[(3-methoxy-1-methyl-1H-pyrazol-4-yl)amino]-5-methylpyrimidin-4-yl}-1H-indol-7-yl)propanamide], for which the IC50 in experiment [1] is greater than 30 µM; in experiment [2], 0.009 µM; in experiment [3] it was 6.39 µM.
In the case of `COc1nn(C)cc1Nc1ncc(C)c(-c2c[nH]c3c(NC(=O)[C@@H](C)N4CCN(CCO)CC4)cccc23)n1` [Example 15, (2R)-2-[4-(2-hydroxyethyl)piperazin-1-yl]-N-(3-{2-[(3-methoxy-1-methyl-1H-pyrazol-4-yl)amino]-5-methylpyrimidin-4-yl}-1H-indol-7-yl)propanamide], the IC50 in experiment [1] is greater than 30 µM; in experiment [2], 0.007 µM; in experiment [3], 2.53 µM.
For `CCN1CCN([C@H](C)C(=O)Nc2cccc3c(-c4nc(Nc5cn(C)nc5OC)ncc4C)c[nH]c23)CC1` [Example 16, (2R)-2-(4-ethylpiperazin-1-yl)-N-(3-{2-[(3-methoxy-1-methyl-1H-pyrazol-4-yl)amino]-5-methylpyrimidin-4-yl}-1H-indol-7-yl)propanamide], the IC50 in experiment [1] was greater than 30 µM; in experiment [2], 0.019 µM; in experiment [3], 6.24 µM.
`COCCN1CCN([C@H](C)C(=O)Nc2cccc3c(-c4nc(Nc5cn(C)nc5OC)ncc4C)c[nH]c23)CC1` [Example 17, (2R)-2-[4-(2-methoxyethyl)piperazin-1-yl]-N-(3-{2-[(3-methoxy-1-methyl-1H-pyrazol-4-yl)amino]-5-methylpyrimidin-4-yl}-1H-indol-7-yl)propanamide]: the IC50 in experiment [1] was greater than 30 µM; in experiment [2], 0.107 µM; in experiment [3], 18.1 µM.
For the compound `COc1nn(C)cc1Nc1ncc(C)c(-c2c[nH]c3c(NC(=O)[C@@H](C)N4CCN(C)[C@H](C)C4)cccc23)n1` [Example 18, (2R)-2-[(3R)-3,4-dimethylpiperazin-1-yl]-N-(3-{2-[(3-methoxy-1-methyl-1H-pyrazol-4-yl)amino]-5-methylpyrimidin-4-yl}-1H-indol-7-yl)propanamide], the IC50 was greater than 30 µM in experiment [1], 0.057 µM in experiment [2] and 17.3 µM in experiment [3].
Regarding `COc1nn(C)cc1Nc1ncc(C)c(-c2c[nH]c3c(NC(=O)[C@@H](C)N4CCN(C)C[C@@H]4C)cccc23)n1` [Example 19, (2R)-2-[(2S)-2,4-dimethylpiperazin-1-yl]-N-(3-{2-[(3-methoxy-1-methyl-1H-pyrazol-4-yl)amino]-5-methylpyrimidin-4-yl}-1H-indol-7-yl)propanamide], the IC50 in experiment [1] was greater than 30 µM; in experiment [2], 0.296 µM; in experiment [3] it was greater than 30 µM.
For `CCOc1nn(C)cc1Nc1ncc(C)c(-c2c[nH]c3c(NC(=O)[C@@H](C)N4CCN(CC)CC4)cccc23)n1` [Example 20, (2R)-N-(3-{2-[(3-ethoxy-1-methyl-1H-pyrazol-4-yl)amino]-5-methylpyrimidin-4-yl}-1H-indol-7-yl)-2-(4-ethylpiperazin-1-yl)propanamide], the IC50 in experiment [1] is greater than 30 µM; in experiment [2], 0.051 µM; in experiment [3], 17.2 µM.
As to `CCOc1nn(C)cc1Nc1ncc(C)c(-c2c[nH]c3c(NC(=O)[C@@H](C)N4CCN(CCOC)CC4)cccc23)n1` [Example 21, (2R)-N-(3-{2-[(3-ethoxy-1-methyl-1H-pyrazol-4-yl)amino]-5-methylpyrimidin-4-yl}-1H-indol-7-yl)-2-[4-(2-methoxyethyl)piperazin-1-yl]propanamide], the IC50 in experiment [1] was greater than 30 µM; in experiment [2], 0.184 µM; in experiment [3], greater than 30 µM.
Take `CCOc1nn(C)cc1Nc1ncc(C)c(-c2c[nH]c3c(NC(=O)[C@@H](C)N4CCN(C)C[C@@H]4C)cccc23)n1` [Example 22, (2R)-2-[(2S)-2,4-dimethylpiperazin-1-yl]-N-(3-{2-[(3-ethoxy-1-methyl-1H-pyrazol-4-yl)amino]-5-methylpyrimidin-4-yl}-1H-indol-7-yl)propanamide]: the IC50 is greater than 30 µM in experiment [1], 0.49 µM in experiment [2] and greater than 30 µM in experiment [3].
Take `CCOc1nn(C)cc1Nc1ncc(C)c(-c2c[nH]c3c(NC(=O)[C@@H](C)N4CCN(C)C[C@H]4C)cccc23)n1` [Example 23, (2R)-2-[(2R)-2,4-dimethylpiperazin-1-yl]-N-(3-{2-[(3-ethoxy-1-methyl-1H-pyrazol-4-yl)amino]-5-methylpyrimidin-4-yl}-1H-indol-7-yl)propanamide]: the IC50 in experiment [1] is greater than 30 µM; in experiment [2] it was 0.029 µM; in experiment [3], 25.7 µM.
For `CCOc1nn(C)cc1Nc1ncc(C)c(-c2c[nH]c3c(NC(=O)[C@@H](C)N4CCN(C)[C@H](C)C4)cccc23)n1` [Example 24, (2R)-2-[(3R)-3,4-dimethylpiperazin-1-yl]-N-(3-{2-[(3-ethoxy-1-methyl-1H-pyrazol-4-yl)amino]-5-methylpyrimidin-4-yl}-1H-indol-7-yl)propanamide], the IC50 in experiment [1] was greater than 30 µM; in experiment [2], 0.113 µM; in experiment [3], greater than 30 µM.
With `COc1nn(C)cc1Nc1ncc(F)c(-c2c[nH]c3c(NC(=O)[C@@H](C)N4CCN(C)CC4)cccc23)n1` [Example 25, (2R)-N-(3-{5-Fluoro-2-[(3-methoxy-1-methyl-1H-pyrazol-4-yl)amino]pyrimidin-4-yl}-1H-indol-7-yl)-2-(4-methylpiperazin-1-yl)propanamide], the IC50 was greater than 30 µM in experiment [1], 0.019 µM in experiment [2] and 6.62 µM in experiment [3].
With `COc1nn(C)cc1Nc1nccc(-c2c[nH]c3c(NC(=O)[C@@H](C)N4CCN(C)[C@@H](C)C4)cccc23)n1` [Example 26, (2R)-2-[(3S)-3,4-dimethylpiperazin-1-yl]-N-(3-{2-[(3-methoxy-1-methyl-1H-pyrazol-4-yl)amino]pyrimidin-4-yl}-1H-indol-7-yl)propanamide], the IC50 was greater than 30 µM in experiment [1], 0.069 µM in experiment [2] and 16.7 µM in experiment [3].
`COCCN1CCN([C@H](C)C(=O)Nc2cccc3c(-c4ccnc(Nc5cn(C)nc5OC)n4)c[nH]c23)CC1` [Example 27, (2R)-2-[4-(2-methoxyethyl)piperazin-1-yl]-N-(3-{2-[(3-methoxy-1-methyl-1H-pyrazol-4-yl)amino]pyrimidin-4-yl}-1H-indol-7-yl)propanamide]: the IC50 in experiment [1] is greater than 30 µM; in experiment [2], 0.575 µM; in experiment [3], greater than 30 µM.
On to `CCN1CCN([C@H](C)C(=O)Nc2cccc3c(-c4ccnc(Nc5cn(C)nc5OC)n4)c[nH]c23)CC1` [Example 28], for which the values for the IC50 in experiment [1], in experiment [2] and in experiment [3] were greater than 30 µM, 0.106 µM and 11.8 µM, respectively.
With `COc1nn(C)cc1Nc1nccc(-c2c[nH]c3c(NC(=O)[C@@H](C)N4CCN(C)[C@H](C)C4)cccc23)n1` [Example 30, (2R)-2-[(3R)-3,4-dimethylpiperazin-1-yl]-N-(3-{2-[(3-methoxy-1-methyl-1H-pyrazol-4-yl)amino]pyrimidin-4-yl}-1H-indol-7-yl)propanamide], the half-inhibitory concentration (IC50) in experiment [1] was greater than 30 µM; in experiment [2], 0.304 µM; in experiment [3], greater than 30 µM.
With `CCOc1nn(C)cc1Nc1ncc(C)c(-c2c[nH]c3c(NC(=O)[C@@H](C)N4CCN(C)[C@@H](C)C4)cccc23)n1` [Example 31a, (2R)-2-[(3S)-3,4-dimethylpiperazin-1-yl]-N-(3-{2-[(3-ethoxy-1-methyl-1H-pyrazol-4-yl)amino]-5-methylpyrimidin-4-yl}-1H-indol-7-yl)propanamide], the values for the IC50 in experiment [1], in experiment [2] and in experiment [3] were greater than 30 µM, 0.015 µM and 19.8 µM, respectively.
For `CCOc1nn(C)cc1Nc1ncc(C)c(-c2c[nH]c3c(NC(=O)[C@H](C)N4CCN(C)[C@@H](C)C4)cccc23)n1` [Example 31b, (2S)-2-[(3S)-3,4-dimethylpiperazin-1-yl]-N-(3-{2-[(3-ethoxy-1-methyl-1H-pyrazol-4-yl)amino]-5-methylpyrimidin-4-yl}-1H-indol-7-yl)propanamide], the half-inhibitory concentration (IC50) in experiment [1] was greater than 30 µM; in experiment [2], 0.454 µM; in experiment [3], greater than 30 µM.
For `COc1nn(C)cc1Nc1ncc(C)c(-c2c[nH]c3c(NC(=O)[C@H](C)N4CCN(C)CC4)cccc23)n1` [Example 33, (2S)-N-(3-{2-[(3-methoxy-1-methyl-1H-pyrazol-4-yl)amino]-5-methylpyrimidin-4-yl}-1H-indol-7-yl)-2-(4-methylpiperazin-1-yl)propanamide], the concentration for half-maximal inhibition (IC50) is greater than 30 µM in experiment [1], 0.272 µM in experiment [2] and greater than 30 µM in experiment [3].

One may read the IC50 as the midpoint of a concentration-inhibition curve.
